Experimental data reported in ChEMBL document CHEMBL4507276 (2021).

Tests used:
[1] = test system: Tyrosine-protein kinase ABL1 (Homo sapiens), P00519 [Q252H]; conditions: Compound concentration 1000.0 nM
[2] = molecular target: T1, Aurora kinase A (Homo sapiens) (UniProt O14965); conditions: Compound concentration 1000.0 nM
T1 sequence (whole entry): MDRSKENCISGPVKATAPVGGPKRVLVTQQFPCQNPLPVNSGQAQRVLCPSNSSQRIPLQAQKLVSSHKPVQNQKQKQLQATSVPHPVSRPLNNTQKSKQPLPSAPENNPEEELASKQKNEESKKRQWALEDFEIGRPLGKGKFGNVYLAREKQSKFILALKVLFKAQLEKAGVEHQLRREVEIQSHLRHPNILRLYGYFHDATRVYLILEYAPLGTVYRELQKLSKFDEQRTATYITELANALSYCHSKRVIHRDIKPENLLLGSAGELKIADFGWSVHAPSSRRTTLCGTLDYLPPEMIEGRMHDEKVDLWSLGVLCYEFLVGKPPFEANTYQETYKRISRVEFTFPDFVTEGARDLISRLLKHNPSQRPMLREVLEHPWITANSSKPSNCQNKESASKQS

[3] = molecular target: Tyrosine-protein kinase receptor UFO (Homo sapiens) (UniProt P30530); conditions: Compound concentration 1000.0 nM
[4] = molecular target: BMP-2-inducible protein kinase (Homo sapiens) (UniProt Q9NSY1); conditions: Compound concentration 1000.0 nM
[5] = molecular target: Protein-tyrosine kinase 6 (Homo sapiens) (UniProt Q13882); conditions: Compound concentration 1000.0 nM
[6] = molecular target: T2, Megakaryocyte-associated tyrosine-protein kinase (Homo sapiens) (UniProt P42679); conditions: Compound concentration 1000.0 nM
T2 sequence (whole entry): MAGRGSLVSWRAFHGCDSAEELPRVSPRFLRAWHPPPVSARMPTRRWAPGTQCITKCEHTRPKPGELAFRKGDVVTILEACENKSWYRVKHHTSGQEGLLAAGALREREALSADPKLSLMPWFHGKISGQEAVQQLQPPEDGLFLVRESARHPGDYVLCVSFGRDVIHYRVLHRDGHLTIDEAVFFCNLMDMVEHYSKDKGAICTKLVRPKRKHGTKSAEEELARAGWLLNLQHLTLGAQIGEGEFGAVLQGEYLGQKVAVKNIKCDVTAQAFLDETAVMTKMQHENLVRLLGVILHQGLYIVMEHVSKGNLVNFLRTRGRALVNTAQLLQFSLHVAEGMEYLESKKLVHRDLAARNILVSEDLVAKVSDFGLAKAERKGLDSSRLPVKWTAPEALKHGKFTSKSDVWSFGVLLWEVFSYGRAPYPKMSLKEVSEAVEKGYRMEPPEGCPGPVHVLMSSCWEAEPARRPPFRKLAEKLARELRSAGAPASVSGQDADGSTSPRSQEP

[7] = molecular target: Mitogen-activated protein kinase kinase kinase 12 (Homo sapiens) (UniProt Q12852); conditions: Compound concentration 1000.0 nM
[8] = molecular target: Eukaryotic translation initiation factor 2-alpha kinase 1 (Homo sapiens) (UniProt Q9BQI3); conditions: Compound concentration 1000.0 nM
[9] = molecular target: Mitogen-activated protein kinase 6 (Homo sapiens) (UniProt Q16659); conditions: Compound concentration 1000.0 nM
[10] = molecular target: Mitogen-activated protein kinase kinase kinase kinase 1 (Homo sapiens) (UniProt Q92918); conditions: Compound concentration 1000.0 nM
[11] = molecular target: Insulin receptor-related protein (Homo sapiens) (UniProt P14616); conditions: Compound concentration 1000.0 nM
[12] = molecular target: T3, Muscle, skeletal receptor tyrosine-protein kinase (Homo sapiens) (UniProt O15146); conditions: Compound concentration 1000.0 nM
T3 sequence (whole entry): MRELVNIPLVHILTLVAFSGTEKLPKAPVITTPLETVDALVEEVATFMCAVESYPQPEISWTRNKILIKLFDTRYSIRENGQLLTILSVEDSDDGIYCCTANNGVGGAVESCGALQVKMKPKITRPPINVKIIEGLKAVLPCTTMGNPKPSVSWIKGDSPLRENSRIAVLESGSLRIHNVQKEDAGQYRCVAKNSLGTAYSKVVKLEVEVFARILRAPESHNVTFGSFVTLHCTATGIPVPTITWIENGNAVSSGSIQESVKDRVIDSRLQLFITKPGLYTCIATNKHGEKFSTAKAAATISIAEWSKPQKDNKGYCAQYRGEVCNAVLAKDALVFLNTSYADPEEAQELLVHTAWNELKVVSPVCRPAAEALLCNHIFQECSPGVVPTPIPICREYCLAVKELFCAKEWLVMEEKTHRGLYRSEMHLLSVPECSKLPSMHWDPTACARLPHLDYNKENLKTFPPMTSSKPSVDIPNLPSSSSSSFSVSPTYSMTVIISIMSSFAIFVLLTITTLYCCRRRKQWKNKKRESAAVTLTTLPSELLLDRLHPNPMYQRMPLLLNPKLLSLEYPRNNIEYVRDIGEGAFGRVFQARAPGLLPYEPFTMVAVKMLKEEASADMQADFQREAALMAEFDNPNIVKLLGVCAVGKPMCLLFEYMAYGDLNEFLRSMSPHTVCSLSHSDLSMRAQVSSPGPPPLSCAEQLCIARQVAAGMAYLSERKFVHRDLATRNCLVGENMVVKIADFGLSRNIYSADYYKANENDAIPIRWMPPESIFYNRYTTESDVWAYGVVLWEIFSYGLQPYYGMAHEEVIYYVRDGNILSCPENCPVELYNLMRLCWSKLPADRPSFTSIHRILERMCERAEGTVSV

[13] = molecular target: Serine/threonine-protein kinase RIO1 (Homo sapiens) (UniProt Q9BRS2); conditions: Compound concentration 1000.0 nM
[14] = molecular target: Proto-oncogene tyrosine-protein kinase Src (Homo sapiens) (UniProt P12931); conditions: Compound concentration 1000.0 nM
[15] = molecular target: Serine/threonine-protein kinase tousled-like 1 (Homo sapiens) (UniProt Q9UKI8); conditions: Compound concentration 1000.0 nM
[16] = molecular target: Serine/threonine-protein kinase 32B (Homo sapiens) (UniProt Q9NY57); conditions: Compound concentration 1000.0 nM
[17] = molecular target: GABA-A receptor; anion channel (Rattus norvegicus) (UniProt O09028+P15431+P18506+P18508+P19969+P20236+P23574+P23576+P28471+P28473+P30191+P62813+P63079+P63138+Q91ZM7+Q9ES14); conditions: Compound concentration 10.0 uM

Chain of Mitogen-activated protein kinase kinase kinase kinase 1 (Homo sapiens) (Q92918 whole entry, looked up): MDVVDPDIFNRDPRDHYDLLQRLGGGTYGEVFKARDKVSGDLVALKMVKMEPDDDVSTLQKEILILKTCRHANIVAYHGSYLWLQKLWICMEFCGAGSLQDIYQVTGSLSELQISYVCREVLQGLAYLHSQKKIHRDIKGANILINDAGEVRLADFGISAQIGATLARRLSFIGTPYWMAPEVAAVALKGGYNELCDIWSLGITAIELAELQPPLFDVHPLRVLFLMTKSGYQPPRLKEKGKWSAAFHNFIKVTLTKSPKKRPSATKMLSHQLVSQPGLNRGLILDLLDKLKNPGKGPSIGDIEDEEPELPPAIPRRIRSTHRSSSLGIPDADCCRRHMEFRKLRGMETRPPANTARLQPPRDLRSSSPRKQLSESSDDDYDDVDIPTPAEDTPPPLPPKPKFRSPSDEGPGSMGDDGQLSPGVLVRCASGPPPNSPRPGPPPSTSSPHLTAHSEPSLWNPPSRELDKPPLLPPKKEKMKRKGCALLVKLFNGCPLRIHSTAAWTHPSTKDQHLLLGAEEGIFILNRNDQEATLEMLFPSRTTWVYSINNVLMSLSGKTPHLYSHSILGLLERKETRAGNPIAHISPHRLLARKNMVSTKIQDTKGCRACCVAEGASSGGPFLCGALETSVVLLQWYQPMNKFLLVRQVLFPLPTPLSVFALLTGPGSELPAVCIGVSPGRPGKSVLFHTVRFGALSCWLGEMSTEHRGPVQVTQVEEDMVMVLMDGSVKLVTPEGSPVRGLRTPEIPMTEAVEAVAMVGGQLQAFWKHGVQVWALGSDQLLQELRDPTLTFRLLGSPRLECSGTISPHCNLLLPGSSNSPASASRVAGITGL
Chain of Mitogen-activated protein kinase kinase kinase 12 (Homo sapiens) (Q12852 whole entry): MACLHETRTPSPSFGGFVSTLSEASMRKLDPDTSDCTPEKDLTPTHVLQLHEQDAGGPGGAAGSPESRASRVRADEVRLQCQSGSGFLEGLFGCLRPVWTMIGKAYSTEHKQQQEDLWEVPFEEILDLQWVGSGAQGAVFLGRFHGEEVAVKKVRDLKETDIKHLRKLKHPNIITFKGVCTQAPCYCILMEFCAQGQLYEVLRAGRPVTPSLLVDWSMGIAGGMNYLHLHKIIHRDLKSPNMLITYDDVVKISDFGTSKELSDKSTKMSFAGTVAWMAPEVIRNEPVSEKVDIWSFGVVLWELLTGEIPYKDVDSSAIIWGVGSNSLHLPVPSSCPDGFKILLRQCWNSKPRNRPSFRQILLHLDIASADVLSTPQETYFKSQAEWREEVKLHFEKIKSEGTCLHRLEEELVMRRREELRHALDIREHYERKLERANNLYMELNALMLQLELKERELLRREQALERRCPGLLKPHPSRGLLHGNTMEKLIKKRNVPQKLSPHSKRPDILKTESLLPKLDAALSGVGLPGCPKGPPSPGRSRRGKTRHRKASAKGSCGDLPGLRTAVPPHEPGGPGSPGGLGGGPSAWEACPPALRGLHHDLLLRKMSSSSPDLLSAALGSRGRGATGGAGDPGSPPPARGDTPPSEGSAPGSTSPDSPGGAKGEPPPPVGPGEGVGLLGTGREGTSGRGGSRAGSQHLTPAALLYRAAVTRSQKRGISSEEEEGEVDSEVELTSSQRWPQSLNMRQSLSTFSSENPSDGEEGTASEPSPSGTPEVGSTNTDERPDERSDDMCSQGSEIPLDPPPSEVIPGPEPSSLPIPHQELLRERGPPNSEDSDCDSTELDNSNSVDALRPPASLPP
Chain of Tyrosine-protein kinase receptor UFO (Homo sapiens) (P30530 whole entry): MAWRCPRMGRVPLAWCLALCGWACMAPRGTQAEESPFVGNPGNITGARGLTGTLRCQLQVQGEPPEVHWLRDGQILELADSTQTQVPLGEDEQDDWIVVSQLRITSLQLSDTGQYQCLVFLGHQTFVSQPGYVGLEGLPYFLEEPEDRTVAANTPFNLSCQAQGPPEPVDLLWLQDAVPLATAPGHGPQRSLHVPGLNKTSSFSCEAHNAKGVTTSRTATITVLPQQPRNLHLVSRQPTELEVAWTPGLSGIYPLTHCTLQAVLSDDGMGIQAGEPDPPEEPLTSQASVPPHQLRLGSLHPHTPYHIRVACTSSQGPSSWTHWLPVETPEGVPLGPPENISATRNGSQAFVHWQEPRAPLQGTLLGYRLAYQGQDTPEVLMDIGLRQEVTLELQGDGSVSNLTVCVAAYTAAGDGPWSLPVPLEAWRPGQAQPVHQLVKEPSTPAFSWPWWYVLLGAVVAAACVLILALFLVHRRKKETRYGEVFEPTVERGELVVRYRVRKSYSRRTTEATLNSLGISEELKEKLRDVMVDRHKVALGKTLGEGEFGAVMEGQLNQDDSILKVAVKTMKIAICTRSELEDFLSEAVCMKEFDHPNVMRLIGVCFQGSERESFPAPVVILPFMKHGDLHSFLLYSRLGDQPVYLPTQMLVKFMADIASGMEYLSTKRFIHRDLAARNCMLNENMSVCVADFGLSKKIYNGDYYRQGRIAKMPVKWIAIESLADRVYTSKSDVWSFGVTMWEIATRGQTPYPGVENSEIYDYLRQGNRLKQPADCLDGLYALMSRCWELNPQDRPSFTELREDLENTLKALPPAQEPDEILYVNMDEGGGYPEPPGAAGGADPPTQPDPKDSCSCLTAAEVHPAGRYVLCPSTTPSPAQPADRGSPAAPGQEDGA
Chain of Eukaryotic translation initiation factor 2-alpha kinase 1 (Homo sapiens) (Q9BQI3 whole entry): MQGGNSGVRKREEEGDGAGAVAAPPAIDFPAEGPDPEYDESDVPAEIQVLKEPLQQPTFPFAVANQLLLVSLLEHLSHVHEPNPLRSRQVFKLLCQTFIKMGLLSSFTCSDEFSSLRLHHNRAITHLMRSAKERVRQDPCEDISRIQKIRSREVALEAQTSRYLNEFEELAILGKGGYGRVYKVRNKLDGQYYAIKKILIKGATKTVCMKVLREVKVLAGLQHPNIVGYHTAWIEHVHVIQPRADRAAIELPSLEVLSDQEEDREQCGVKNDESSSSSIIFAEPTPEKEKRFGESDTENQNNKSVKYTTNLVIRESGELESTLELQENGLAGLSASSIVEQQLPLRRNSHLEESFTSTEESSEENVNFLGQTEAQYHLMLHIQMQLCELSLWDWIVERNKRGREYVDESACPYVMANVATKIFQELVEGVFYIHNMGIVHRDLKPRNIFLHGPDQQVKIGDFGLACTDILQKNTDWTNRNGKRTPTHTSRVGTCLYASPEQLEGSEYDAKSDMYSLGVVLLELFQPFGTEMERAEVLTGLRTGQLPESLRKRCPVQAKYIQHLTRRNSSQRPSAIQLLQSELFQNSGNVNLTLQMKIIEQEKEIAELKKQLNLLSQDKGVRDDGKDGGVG
Chain of Insulin receptor-related protein (Homo sapiens) (P14616 27-742 limits assumed): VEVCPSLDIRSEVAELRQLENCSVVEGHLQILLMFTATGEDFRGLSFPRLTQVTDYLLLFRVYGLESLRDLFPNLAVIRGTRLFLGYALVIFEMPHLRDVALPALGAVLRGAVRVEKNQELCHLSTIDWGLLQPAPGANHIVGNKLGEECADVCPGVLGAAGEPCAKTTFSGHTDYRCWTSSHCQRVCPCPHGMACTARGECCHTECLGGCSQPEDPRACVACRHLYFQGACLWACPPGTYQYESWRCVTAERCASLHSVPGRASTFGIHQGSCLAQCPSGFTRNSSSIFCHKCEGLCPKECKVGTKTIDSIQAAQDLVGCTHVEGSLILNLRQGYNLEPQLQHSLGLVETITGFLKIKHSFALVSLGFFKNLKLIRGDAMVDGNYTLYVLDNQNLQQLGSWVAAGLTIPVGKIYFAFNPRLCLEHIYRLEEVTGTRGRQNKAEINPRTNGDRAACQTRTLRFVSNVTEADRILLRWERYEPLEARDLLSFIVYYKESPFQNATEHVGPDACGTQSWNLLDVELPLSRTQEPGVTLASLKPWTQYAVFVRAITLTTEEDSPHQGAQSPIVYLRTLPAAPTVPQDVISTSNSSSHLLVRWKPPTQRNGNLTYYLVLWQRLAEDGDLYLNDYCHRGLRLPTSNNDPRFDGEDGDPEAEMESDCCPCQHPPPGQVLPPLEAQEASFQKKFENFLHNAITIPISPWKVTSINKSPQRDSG
Chain of Insulin receptor-related protein (Homo sapiens) (P14616 747-1297 limits assumed): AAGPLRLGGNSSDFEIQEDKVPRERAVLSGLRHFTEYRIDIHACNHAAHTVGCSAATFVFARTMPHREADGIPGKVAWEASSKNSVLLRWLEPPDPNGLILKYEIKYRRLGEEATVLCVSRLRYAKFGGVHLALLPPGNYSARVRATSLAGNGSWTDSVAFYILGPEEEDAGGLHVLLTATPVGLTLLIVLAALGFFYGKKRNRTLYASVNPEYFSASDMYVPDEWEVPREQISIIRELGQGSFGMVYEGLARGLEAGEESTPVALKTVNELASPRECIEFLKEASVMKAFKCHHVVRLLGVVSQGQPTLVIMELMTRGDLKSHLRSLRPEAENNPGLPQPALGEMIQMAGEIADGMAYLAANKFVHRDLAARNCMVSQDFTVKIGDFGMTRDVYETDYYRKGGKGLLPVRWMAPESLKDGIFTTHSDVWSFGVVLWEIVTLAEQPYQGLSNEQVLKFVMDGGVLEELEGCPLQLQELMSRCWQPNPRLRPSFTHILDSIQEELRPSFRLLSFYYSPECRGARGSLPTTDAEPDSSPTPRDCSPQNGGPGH
Chain of Proto-oncogene tyrosine-protein kinase Src (Homo sapiens) (P12931 2-536 limits assumed): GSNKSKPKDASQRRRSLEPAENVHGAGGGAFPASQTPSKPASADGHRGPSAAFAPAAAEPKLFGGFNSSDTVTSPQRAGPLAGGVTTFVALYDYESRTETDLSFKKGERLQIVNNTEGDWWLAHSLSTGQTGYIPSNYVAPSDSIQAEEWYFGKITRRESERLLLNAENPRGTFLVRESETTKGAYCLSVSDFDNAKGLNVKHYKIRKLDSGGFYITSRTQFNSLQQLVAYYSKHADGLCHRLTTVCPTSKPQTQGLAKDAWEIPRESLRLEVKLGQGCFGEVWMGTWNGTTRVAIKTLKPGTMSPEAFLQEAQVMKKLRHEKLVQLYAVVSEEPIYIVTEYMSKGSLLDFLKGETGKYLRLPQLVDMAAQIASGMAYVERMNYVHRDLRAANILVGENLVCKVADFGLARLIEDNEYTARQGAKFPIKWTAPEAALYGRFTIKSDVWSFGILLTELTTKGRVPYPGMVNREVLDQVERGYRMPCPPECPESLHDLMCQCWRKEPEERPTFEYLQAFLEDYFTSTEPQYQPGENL

CN(C)C(=O)Cn1cc(-c2nc(C3(c4ccc(-c5cnc(N)nc5)cc4)CC3)no2)cn1 [BI 0153]
inactive: residual activity [1] 100% | residual activity [2] 82% | residual activity [3] 93% | residual activity [4] 99% | residual activity [5] 100% | residual activity [6] 77% | residual activity [7] 100% | residual activity [8] 88% | residual activity [9] 91% | residual activity [10] 81% | residual activity [11] 100% | residual activity [12] 100% | residual activity [13] 100% | residual activity [14] 84% | residual activity [15] 100% | residual activity [16] 100% | inhibition [17] 19.4%

CN(C)C(=O)Cn1cc(-c2nc([C@@](C)(c3ccc(-c4cnc(N)nc4)cc3)C3CC3)no2)cn1 [BI 665915]
inactive: residual activity [1] 83% | residual activity [2] 73% | residual activity [3] 98% | residual activity [4] 100% | residual activity [5] 100% | residual activity [6] 77% | residual activity [7] 80% | residual activity [8] 96% | residual activity [9] 91% | residual activity [10] 100% | residual activity [11] 99% | residual activity [12] 100% | residual activity [13] 100% | residual activity [14] 90% | residual activity [15] 100% | residual activity [16] 100% | inhibition [17] 25.5%
